ChEMBL document CHEMBL4616604, “Comparing a thioglycosylated chlorin and phthalocyanine as potential theranostic agents” (Bioorg Med Chem, 2020)

Columns and labels:
[1] = Drug uptake in human MDA-MB-231 cells at 1 uM incubated for 24 hrs by fluorescence imaging analysis; assay type: ADME, cell-based; conditions: mda-mb-231, 24 h
[2] = Drug uptake in human MCF7 cells at 1 uM incubated for 24 hrs by fluorescence imaging analysis; assay type: ADME, cell-based; conditions: mcf7, 24 h
[3] = Drug uptake in athymic mouse xenografted with HNSCC cells at 0.1 mM administered iv measured up to 4 days post-drug administration by IVIS spectrum in vivo fluorescence imaging analysis; assay type: ADME, organism-based; conditions: 96 h, 100 µM
[4] = test system: MDA-MB-231; assay: Dark cytotoxicity against human MDA-MB-231 cells assessed as inhibition of cell viability incubated for 24 hrs by CellTiter Blue assay; assay type: cell-based; conditions: MDA-MB-231, 24 h
[5] = test system: MCF7; assay: Dark cytotoxicity against human MCF7 cells assessed as inhibition of cell viability incubated for 24 hrs by CellTiter Blue assay; assay type: cell-based; conditions: MCF7, 24 h
[6] = test system: MDA-MB-231; assay: Phototoxicity against human MDA-MB-231 cells assessed as inhibition of cell viability incubated with compound for 2 hrs followed by irradiation with 0.92 mW cm'-2 light and measured after overnight incubation by CellTiter Blue assay; assay type: functional, cell-based; conditions: MDA-MB-231, light or radiation study
[7] = test system: MCF7; assay: Phototoxicity against human MCF7 cells assessed as inhibition of cell viability incubated with compound for 2 hrs followed by irradiation with 0.92 mW cm'-2 light and measured after overnight incubation by CellTiter Blue assay; assay type: functional, cell-based; conditions: MCF7, light or radiation study
[8] = Time dependent drug uptake in human MDA-MB-231 cells at 10 uM incubated up to 24 hrs by spectrofluorometric analysis; assay type: ADME, cell-based; conditions: mda-mb-231, 24 h
[9] = Time dependent drug uptake in human MCF7 cells at 10 uM incubated up to 24 hrs by spectrofluorometric analysis; assay type: ADME, cell-based; conditions: mcf7, 24 h

SMILES: CN1CC2c3nc(c(-c4c(F)c(F)c(S[C@@H]5O[C@H](CO)[C@@H](O)[C@H](O)[C@H]5O)c(F)c4F)c4ccc([nH]4)c(-c4c(F)c(F)c(S[C@@H]5O[C@H](CO)[C@@H](O)[C@H](O)[C@H]5O)c(F)c4F)c4nc(c(-c5c(F)c(F)c(S[C@@H]6O[C@H](CO)[C@@H](O)[C@H](O)[C@H]6O)c(F)c5F)c5ccc([nH]5)c3-c3c(F)c(F)c(S[C@@H]5O[C@H](CO)[C@@H](O)[C@H](O)[C@H]5O)c(F)c3F)C=C4)C2C1 (some centres undefined)
- Drug uptake [1]: Active
- Drug uptake [2]: Active
- Drug uptake [3]: Active
- IC50 [4]: > 100000 nM
- IC50 [5]: > 100000 nM
- IC50 [6]: 1000 to 2000 nM
- IC50 [7]: 1000 to 2000 nM
- Drug uptake [8]: Active
- Drug uptake [9]: Active
